# Assay results: patent publication US12110289B2, “Heterocyclic compounds, preparation methods and uses thereof” (InventisBio Co., Ltd., priority 2020, dated 2024)
# System: Lung cancer cell line NCI-H358 containing KRas G12C mutation
# Assay: Assay for cell proliferation (Cell-titer Glo, 5 days)
# Type: cell-based, human
# Conditions: Homo sapiens, NCI-H358, 120 h, NCI-H358, 5 days, Cell-titer Glo; read-out: IC50 (nM), Inhibition of NCI-H358 Cell Proliferation
# Procedure: One hundred fifty microliter (150 μL) of media containing 2000 cells per well were seeded into each well of a 96-well culture plate and left to attach overnight in a 37° C. incubator with 5% CO2. Diluted compounds of 0.75 μL for each well were added by liquid handler at a final concentration of 0.5% DMSO. Cells were treated for 5 days in the incubator. Cell-titer Glo (CTG) kit (Promega) was used to assess cell proliferation. Of note, 120 μL of CTG reagent was added to each well and incubated at RT for 10 minutes.
row,Structure (SMILES),IC50 [nM]
1,C=CC(=O)N1CCN(c2nc(=O)n(-c3c(C(C)C)nc(N(C)S(C)(=O)=O)nc3C(C)C)c3nc(-c4ccccc4F)c(F)cc23)[C@@H](C)C1 [Compound 56],27
2,C=CC(=O)N1CCN(c2nc(=O)n(-c3c(C)ccnc3C(C)C)c3nc(-c4cccc5[nH]nc(N)c45)c(F)cc23)[C@@H](C)C1 [Compound 59],> 3000
3,C=CC(=O)N1CCN(c2nc(=O)n(-c3c(C)cc(S(C)(=O)=O)nc3C(C)C)c3nc(-c4c(O)cccc4F)c(F)cc23)[C@@H](C)C1 [Compound 60],81.7
4,C=CC(=O)N1CCN(c2nc(=O)n(-c3c(C4CC4)nc(OC)nc3C3CC3)c3nc(-c4ccccc4F)c(F)cc23)[C@@H](C)C1 [Compound 61],71.2
5,C=CC(=O)N1CCN(c2nc(=O)n(-c3c(C4CC4)nc(OC)nc3C3CC3)c3nc(-c4c(O)cccc4F)c(F)cc23)[C@@H](C)C1 [Compound 62],15.9
6,C=CC(=O)N1CCN(c2nc(=O)n(-c3c(C(C)C)nc4c(ncn4C)c3C)c3nc(-c4ccccc4F)c(Cl)cc23)[C@@H](C)C1 [Compound 65],17.6
7,C=CC(=O)N1CCN(c2nc(=O)n(-c3c(C(C)C)cc4scnc4c3C)c3nc(-c4ccccc4F)c(Cl)cc23)[C@@H](C)C1 [Compound 66],19.9
8,C=CC(=O)N1CCN(c2nc(=O)n(-c3c(C(C)C)cc4c(ncn4C)c3C)c3nc(-c4ccccc4F)c(Cl)cc23)[C@@H](C)C1 [Compound 67],46.5
9,C=CC(=O)N1CCN(c2nc(=O)n(-c3c(C)cc4scnc4c3C(C)C)c3nc(-c4ccccc4F)c(Cl)cc23)[C@@H](C)C1 [Compound 68],344
10,C=CC(=O)N1CCN(c2nc(=O)n(-c3cc4ncn(C)c4nc3C(C)C)c3nc(-c4ccccc4F)c(Cl)cc23)[C@@H](C)C1 [Compound 70],15.1
11,C=CC(=O)N1CCN(c2nc(=O)n(-c3ccc4scnc4c3C(C)C)c3nc(-c4ccccc4F)c(Cl)cc23)[C@@H](C)C1 [Compound 71],20.1
12,C=CC(=O)N1CCN(c2nc(=O)n(-c3c(C(C)C)nc4c(ncn4C)c3C)c3nc(-c4ccccc4F)c(F)cc23)[C@@H](C)C1 [Compound 73],66
13,C=CC(=O)N1CCN(c2nc(=O)n(-c3c(C4CC4)nc(OC)nc3C3CC3)c3nc(-c4c(N)cccc4F)c(F)cc23)[C@@H](C)C1 [Compound 74],5.7
14,C=CC(=O)N1CCN(c2nc(=O)n(-c3c(C(C)C)nc(C)nc3C(C)C)c3nc(-c4c(O)cccc4F)c(F)cc23)[C@@H](C)C1 [Compound 77],8.6
15,C=CC(=O)N1CCN(c2nc(=O)n(-c3c(C(C)C)nc(C)nc3C(C)C)c3nc(-c4c(N)cccc4F)c(F)cc23)[C@@H](C)C1 [Compound 78],10.4
16,C=CC(=O)N1C[C@H](C)N(c2nc(=O)n(-c3c(C4CC4)nc(OC)nc3C3CC3)c3nc(-c4c(O)cccc4F)c(F)cc23)C[C@H]1C [Compound 79],12.9
17,C=CC(=O)N1C[C@H](C)N(c2nc(=O)n(-c3c(C4CC4)nc(OC)nc3C3CC3)c3nc(-c4c(N)cccc4F)c(F)cc23)C[C@H]1C [Compound 80],8.1
18,C=CC(=O)N1CCN(c2nc(=O)n(-c3c(C)cc(OC)nc3C(C)C)c3nc(-c4c(O)cccc4F)c(F)cc23)[C@@H](C)C1 [Compound 81],35.9
19,C=CC(=O)N1CCN(c2nc(=O)n(-c3c(C(C)C)nc(N4CCNCC4)nc3C(C)C)c3nc(-c4c(O)cccc4F)c(Cl)cc23)[C@@H](C)C1 [Compound 82],10.8
20,C=CC(=O)N1CCN(c2nc(=O)n(-c3c(C(C)C)nc(N4CCNCC4)nc3C(C)C)c3nc(-c4c(N)cccc4F)c(Cl)cc23)[C@@H](C)C1 [Compound 83],5.9
21,C=CC(=O)N1C[C@H](C)N(c2nc(=O)n(-c3c(C(C)C)nc(N4CCNCC4)nc3C(C)C)c3nc(-c4ccccc4F)c(Cl)cc23)C[C@H]1C [Compound 84],6.9
22,C=CC(=O)N1C[C@H](C)N(c2nc(=O)n(-c3c(C4CC4)nc(N4CCNCC4)nc3C3CC3)c3nc(-c4ccccc4F)c(Cl)cc23)C[C@H]1C [Compound 85],9.7
23,C=CC(=O)N1C[C@H](C)N(c2nc(=O)n(-c3c(C4CC4)nc(N4CCNCC4)nc3C3CC3)c3nc(-c4c(O)cccc4F)c(Cl)cc23)C[C@H]1C [Compound 86],8.6
24,C=CC(=O)N1C[C@H](C)N(c2nc(=O)n(-c3c(C(C)C)nc(N4CCNCC4)nc3C(C)C)c3nc(-c4c(N)cccc4F)c(Cl)cc23)C[C@H]1C [Compound 87],4.1
25,C=CC(=O)N1CCN(c2nc(=O)n(-c3c(C4CC4)nc(N4CCNCC4)nc3C3CC3)c3nc(-c4c(O)cccc4F)c(Cl)cc23)[C@@H](C)C1 [Compound 88],21.2

row,Structure (SMILES),IC50 [nM]
1,C=CC(=O)N1CCN(c2nc(=O)n(-c3c(C4CC4)nc(N4CCN(C)CC4)nc3C3CC3)c3nc(-c4c(O)cccc4F)c(Cl)cc23)[C@@H](C)C1 [Compound 89],1.5
2,C=CC(=O)N1CCN(c2nc(=O)n(-c3c(C4CC4)nc(N4CCN(C)CC4)nc3C3CC3)c3nc(-c4ccccc4F)c(Cl)cc23)[C@@H](C)C1 [Compound 91],7.8
3,C=CC(=O)N1CCN(c2nc(=O)n(-c3c(C4CC4)nc(N4CCNCC4)nc3C3CC3)c3nc(-c4c(N)cccc4F)c(Cl)cc23)[C@@H](C)C1 [Compound 92],2.8
4,C=CC(=O)N1CCN(c2nc(=O)n(-c3c(C4CC4)nc(N4CCN(C)CC4)nc3C3CC3)c3nc(-c4c(N)cccc4F)c(Cl)cc23)[C@@H](C)C1 [Compound 93],1.8
5,C=CC(=O)N1C[C@H](C)N(c2nc(=O)n(-c3c(C(C)C)nc(N4CCNCC4)nc3C(C)C)c3nc(-c4ccccc4F)c(F)cc23)C[C@H]1C [Compound 94],37.5
6,C=CC(=O)N1C[C@H](C)N(c2nc(=O)n(-c3c(C(C)C)nc(N4CCNCC4)nc3C(C)C)c3nc(-c4c(O)cccc4F)c(F)cc23)C[C@H]1C [Compound 95],14.6
7,C=CC(=O)N1C[C@H](C)N(c2nc(=O)n(-c3c(C(C)C)nc(N4CCNCC4)nc3C(C)C)c3nc(-c4c(N)cccc4F)c(F)cc23)C[C@H]1C [Compound 96],10.8
8,C=CC(=O)N1C[C@H](C)N(c2nc(=O)n(-c3c(C(C)C)nc(N4CCN(C)CC4)nc3C(C)C)c3nc(-c4c(N)cccc4F)c(F)cc23)C[C@H]1C [Compound 97],7.3
9,C=CC(=O)N1C[C@H](C)N(c2nc(=O)n(-c3c(C4CC4)nc(N4CCNCC4)nc3C3CC3)c3nc(-c4c(N)cccc4F)c(F)cc23)C[C@H]1C [Compound 98],7.4
10,C=CC(=O)N1C[C@H](C)N(c2nc(=O)n(-c3c(C4CC4)nc(N4CCN(C)CC4)nc3C3CC3)c3nc(-c4c(N)cccc4F)c(F)cc23)C[C@H]1C [Compound 99],5.8
11,C=CC(=O)N1C[C@H](C)N(c2nc(=O)n(-c3c(C4CC4)nc(N4CCNCC4)nc3C3CC3)c3nc(-c4c(O)cccc4F)c(F)cc23)C[C@H]1C [Compound 100],14.1
12,C=CC(=O)N1C[C@H](C)N(c2nc(=O)n(-c3c(C4CC4)nc(N4CCN(C)CC4)nc3C3CC3)c3nc(-c4c(O)cccc4F)c(F)cc23)C[C@H]1C [Compound 101],25.8
13,C=CC(=O)N1C[C@H](C)N(c2nc(=O)n(-c3c(C4CC4)nc(N4CCNCC4)nc3C3CC3)c3nc(-c4ccccc4F)c(F)cc23)C[C@H]1C [Compound 102],37.4
14,C=CC(=O)N1C[C@H](C)N(c2nc(=O)n(-c3c(C4CC4)nc(N4CCN(C)CC4)nc3C3CC3)c3nc(-c4ccccc4F)c(F)cc23)C[C@H]1C [Compound 103],47.6
15,C=CC(=O)N1CCN(c2nc(=O)n(-c3c(C(C)C)nc(C4CC4)nc3C(C)C)c3nc(-c4c(N)cccc4F)c(F)cc23)[C@@H](C)C1 [Compound 105],8.8
16,C=CC(=O)N1CCN(c2nc(=O)n(-c3c(C(C)C)nc(N)nc3C(C)C)c3nc(-c4c(O)cccc4F)c(Cl)cc23)[C@@H](C)C1 [Compound 106],10.2
17,C=CC(=O)N1C[C@H](C)N(c2nc(=O)n(-c3c(C(C)C)nc(N)nc3C(C)C)c3nc(-c4c(O)cccc4F)c(Cl)cc23)C[C@H]1C [Compound 107],5.2
18,C=CC(=O)N1CCN(c2nc(=O)n(-c3c(C(C)C)nc(N)nc3C(C)C)c3nc(-c4c(O)cccc4F)c(F)cc23)[C@@H](C)C1 [Compound 108],46.5
19,C=CC(=O)N1C[C@H](C)N(c2nc(=O)n(-c3c(C(C)C)nc(N)nc3C(C)C)c3nc(-c4c(O)cccc4F)c(F)cc23)C[C@H]1C [Compound 109],12.3
20,C=CC(=O)N1CCN(c2nc(=O)n(-c3c(C4CC4)nc(N)nc3C3CC3)c3nc(-c4c(O)cccc4F)c(Cl)cc23)[C@@H](C)C1 [Compound 110],10.1
21,C=CC(=O)N1C[C@H](C)N(c2nc(=O)n(-c3c(C4CC4)nc(N)nc3C3CC3)c3nc(-c4c(O)cccc4F)c(Cl)cc23)C[C@H]1C [Compound 111],6.3
22,C=CC(=O)N1CCN(c2nc(=O)n(-c3c(C4CC4)nc(N)nc3C3CC3)c3nc(-c4c(O)cccc4F)c(F)cc23)[C@@H](C)C1 [Compound 112],32.1
23,C=CC(=O)N1C[C@H](C)N(c2nc(=O)n(-c3c(C4CC4)nc(N)nc3C3CC3)c3nc(-c4c(O)cccc4F)c(F)cc23)C[C@H]1C [Compound 113],48.5
24,C=CC(=O)N1C[C@H](C)N(c2nc(=O)n(-c3c(C4CC4)nc(C)nc3C3CC3)c3nc(-c4cccc5[nH]nc(N)c45)c(F)cc23)C[C@H]1C [Compound 114],497
25,C=CC(=O)N1C[C@H](C)N(c2nc(=O)n(-c3c(C4CC4)nc(N4CCNCC4)nc3C3CC3)c3nc(-c4c(N)cccc4F)c(Cl)cc23)C[C@H]1C [Compound 115],4.6

# Same assay, conditions: NCI-H358, 5 days, Cell-titer Glo; read-out: IC50 (nM), Inhibition of NCI-H358 Cell Proliferation
row,Structure (SMILES),IC50 [nM]
1,C=CC(=O)N1CCN(c2nc(=O)n(-c3c(C)cc4c(ncn4C)c3C(C)C)c3nc(-c4ccccc4F)c(Cl)cc23)[C@@H](C)C1 [Compound 69],7.8

# Same assay, conditions: NCI-H358 IC50 comparison
row,Structure (SMILES),fold more potent: 2-amino-6-fluoro-phenyl compound vs. corresponding 2-fluoro-phenyl compound at R8
1,C=CC(=O)N1CCN(c2nc(=O)n(-c3c(C(C)C)nc(C)nc3C(C)C)c3nc(-c4c(N)cccc4F)c(F)cc23)[C@@H](C)C1 [Compound 78],only slightly more potent
